Assay results as given in article PMC4527243, “Role of electrostatic interactions for ligand recognition and specificity of peptide transporters” (BMC Biology, 2015).
Where a SMILES comes first, the peptide text is derived from it.

T1: YePEPT (Yersinia enterocolitica, UniProt A0A2R9TD79)
T1 construct: gene YEP4_02370; full-length gene in pZUDF21-rbs-3C-10His, C-terminal HRV3C site and deca-His tag, expressed in E. coli BL21(DE3) pLysS; uptake in whole cells
T1 sequence (A0A2R9TD79 1-511): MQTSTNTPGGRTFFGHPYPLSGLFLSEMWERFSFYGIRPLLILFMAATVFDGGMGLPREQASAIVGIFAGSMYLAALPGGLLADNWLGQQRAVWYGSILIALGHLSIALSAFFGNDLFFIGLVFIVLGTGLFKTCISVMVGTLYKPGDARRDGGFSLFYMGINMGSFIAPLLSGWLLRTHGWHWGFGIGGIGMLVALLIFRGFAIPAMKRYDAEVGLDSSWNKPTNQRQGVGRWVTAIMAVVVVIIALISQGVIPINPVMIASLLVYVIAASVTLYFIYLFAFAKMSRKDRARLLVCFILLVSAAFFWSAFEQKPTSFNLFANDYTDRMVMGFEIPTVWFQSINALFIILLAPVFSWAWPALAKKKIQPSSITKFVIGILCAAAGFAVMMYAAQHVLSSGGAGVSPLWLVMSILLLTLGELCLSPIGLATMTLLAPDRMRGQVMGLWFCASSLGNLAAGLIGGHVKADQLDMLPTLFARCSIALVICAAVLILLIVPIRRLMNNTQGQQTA


How the values were obtained:
YePEPT [1] = molecular target: T1, YePEPT; test: competition of [3H]Ala-Ala uptake in E. coli cells; type: cell-based, Escherichia coli
YePEPT [2] = molecular target: T1, YePEPT; test: competition of [3H]Ala-Ala uptake in E. coli cells; type: cell-based; settings: 50 μM [3H]Ala-Ala, 2.5 mM competitor, pH 7.5, room temperature
[3] = substrate: C[C@H](N)C(=O)N[C@@H](C)C(=O)O; test: [3H]Ala-Ala uptake saturation in E. coli cells; type: cell-based, Yersinia enterocolitica; settings: labelled compound, pH 7.5, 150 mM NaCl, room temperature, 100 s

Molecule	Ki (YePEPT [1])	other results
C[C@H](NC(=O)[C@@H](N)CC(=O)O)C(=O)O [Asp-Ala] (H-Asp-Ala-OH)	~80 µM	–
C[C@H](NC(=O)[C@@H](N)CCC(=O)O)C(=O)O [Glu-Ala] (H-Glu-Ala-OH)	~50 µM	–
C[C@H](NC(=O)[C@@H](N)Cc1ccc(O)cc1)C(=O)O [Tyr-Ala]	–	competition of [3H]Ala-Ala uptake in E. coli cells (YePEPT [2]): YePEPT also displayed specificity for Ala-Tyr and Tyr-Ala at comparable levels
YePEPT (Yersinia enterocolitica subsp. palearctica YE-P4) (protein, full-length gene in pZUDF21-rbs-3C-10His, C-terminal HRV3C site and deca-His tag, expressed in E. coli BL21(DE3) pLysS; uptake in whole cells) MQTSTNTPGGRTFFGHPYPLSGLFLSEMWERFSFYGIRPLLILFMAATVFDGGMGLPREQASAIVGIFAGSMYLAALPGGLLADNWLGQQRAVWYGSILIALGHLSIALSAFFGNDLFFIGLVFIVLGTGLFKTCISVMVGTLYKPGDARRDGGFSLFYMGINMGSFIAPLLSGWLLRTHGWHWGFGIGGIGMLVALLIFRGFAIPAMKRYDAEVGLDSSWNKPTNQRQGVGRWVTAIMAVVVVIIALISQGVIPINPVMIASLLVYVIAASVTLYFIYLFAFAKMSRKDRARLLVCFILLVSAAFFWSAFEQKPTSFNLFANDYTDRMVMGFEIPTVWFQSINALFIILLAPVFSWAWPALAKKKIQPSSITKFVIGILCAAAGFAVMMYAAQHVLSSGGAGVSPLWLVMSILLLTLGELCLSPIGLATMTLLAPDRMRGQVMGLWFCASSLGNLAAGLIGGHVKADQLDMLPTLFARCSIALVICAAVLILLIVPIRRLMNNTQGQQTA	–	Km [3]: 200 µM
